Test results from ChEMBL document CHEMBL1151524, “Synthesis and evaluation of pyrazolo[3,4-b]quinoline ribofuranosides and their derivatives as inhibitors of oncogenic Ras” (Bioorg Med Chem Lett, 1996).

Key:
[1] = molecular target: T1, GTPase HRas (Homo sapiens, UniProt P01112); experiment: Inhibition of nucleotide exchange process of oncogenic Ras at concentration 50 uM
[2] = molecular target: T1, GTPase HRas; experiment: Inhibition of nucleotide exchange process of oncogenic Ras in vitro
[3] = molecular target: T1, GTPase HRas; experiment: In vitro for inhibition of nucleotide exchange process of oncogenic Ras

T1 sequence (P01112 whole entry, looked up): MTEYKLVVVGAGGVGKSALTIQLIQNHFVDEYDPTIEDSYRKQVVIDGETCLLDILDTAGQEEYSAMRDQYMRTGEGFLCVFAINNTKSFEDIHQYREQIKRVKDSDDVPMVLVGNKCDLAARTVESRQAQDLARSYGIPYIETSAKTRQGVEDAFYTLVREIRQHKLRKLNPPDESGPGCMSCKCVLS

| Compound | inhibition [1] | IC50 [2] | other results |
| --- | --- | --- | --- |
| COc1ccc2nc3c(c(C)nn3[C@@H]3O[C@H](COC(=O)c4ccccc4)[C@@H](O)[C@H]3O)c(Cl)c2c1 | 16% |  |  |
| COc1ccc2nc3c(c(C)nn3[C@H]3CN(Sc4ccc([N+](=O)[O-])cc4)C[C@@H](CO[Si](C)(C)C(C)(C)C)O3)c(Cl)c2c1 |  | 50 µM |  |
| COc1ccc2nc3c(c(C)nn3[C@H]3CN(Sc4ccccc4[N+](=O)[O-])C[C@@H](CO)O3)c(Cl)c2c1 |  | 14 µM |  |
| COc1ccc2nc3c(c(C)nn3[C@H]3CN(S(=O)(=O)c4ccc([N+](=O)[O-])cc4)C[C@@H](CO[Si](C)(C)C(C)(C)C)O3)c(Cl)c2c1 |  | 5 µM |  |
| COc1ccc(C(=O)OC[C@H]2O[C@@H](n3nc(C)c4c(Cl)c5cc(OC)ccc5nc43)[C@H](OC(=O)c3ccc(OC)cc3)[C@@H]2OC(=O)c2ccc(OC)cc2)cc1 | 44% |  |  |
| COc1ccc2nc3c(c(C)nn3[C@H]3CN(S(=O)(=O)c4ccccc4)C[C@@H](CO)O3)c(Cl)c2c1 |  | 12 µM |  |
| COc1ccc2nc3c(c(C)nn3[C@@H]3O[C@H](COC(=O)c4ccc([N+](=O)[O-])cc4)[C@@H](OC(=O)c4ccc([N+](=O)[O-])cc4)[C@H]3OC(=O)c3ccc([N+](=O)[O-])cc3)c(Cl)c2c1 | 59% |  |  |
| COc1ccc2nc3c(c(C)nn3[C@H]3CN(Sc4ccccc4[N+](=O)[O-])C[C@@H](C/C=C/C(=O)c4ccccc4)O3)c(Cl)c2c1 |  | 4.7 µM |  |
| COc1ccc2nc3c(c(C)nn3[C@H]3CN(Sc4ccc([N+](=O)[O-])cc4)C[C@@H](C/C=C/C(C)=O)O3)c(Cl)c2c1 |  | 3 µM |  |
| COc1ccc2nc3c(c(C)nn3[C@H]3CN(S(=O)(=O)c4ccccc4)C[C@@H](CO[Si](C)(C)C(C)(C)C)O3)c(Cl)c2c1 |  | 14 µM |  |
| COc1ccc2nc3c(c(C)nn3[C@@H]3O[C@H](OCc4ccccc4)[C@@H](OCc4ccccc4)[C@H]3OCc3ccccc3)c(Cl)c2c1 | 35% |  |  |
| COc1ccc2nc3c(c(C)nn3[C@@H]3O[C@H](O/C=C/C(=O)c4ccccc4)[C@@H](O)[C@H]3O)c(Cl)c2c1 |  | 10 µM |  |
| COc1ccc2nc3c(c(C)nn3[C@@H]3O[C@H](COC(=O)c4ccccc4)[C@H]4OC(=S)O[C@H]43)c(Cl)c2c1 |  | 15 µM |  |
| COc1ccc2nc3c(c(C)nn3[C@@H]3O[C@H](OC(O)CC(=O)c4ccccc4)[C@H]4OC(=S)O[C@H]43)c(Cl)c2c1 (stereo not given in full) |  | 1.5 µM |  |
| COc1ccc2nc3c(c(C)nn3[C@@H]3O[C@H](COC(=O)c4ccccc4)[C@@H](OCc4ccccc4)[C@H]3OCc3ccccc3)c(Cl)c2c1 | 53% |  |  |
| COc1ccc2nc3c(c(C)nn3[C@H]3CN(Sc4ccc([N+](=O)[O-])cc4)C[C@@H](C/C=C/C(=O)c4ccccc4)O3)c(Cl)c2c1 |  | 7.4 µM |  |
| COc1ccc2nc3c(c(C)nn3[C@@H]3O[C@H](COC(=O)Cc4ccccc4)[C@@H](OC(=O)Cc4ccccc4)[C@H]3OC(=O)Cc3ccccc3)c(Cl)c2c1 | 62% |  |  |
| COc1ccc2nc3c(c(C)nn3[C@@H]3O[C@H](COC(=O)c4ccccc4)[C@@H](OC(C)=O)[C@H]3OC(C)=O)c(Cl)c2c1 | 44% |  |  |
| COc1ccc2nc3c(c(C)nn3[C@H]3CN(S(=O)(=O)c4ccccc4)C[C@@H](COC(=O)c4ccccc4)O3)c(Cl)c2c1 | 47% |  |  |
| CCOC(=O)/C=C/C[C@@H]1CN(Sc2ccccc2[N+](=O)[O-])C[C@H](n2nc(C)c3c(Cl)c4cc(OC)ccc4nc32)O1 |  | 16 µM |  |

| Compound | inhibition [1] | IC50 [2] | other results |
| --- | --- | --- | --- |
| COc1ccc2nc3c(c(C)nn3[C@H]3CN(Sc4ccccc4[N+](=O)[O-])C[C@@H](CO[Si](C)(C)C(C)(C)C)O3)c(Cl)c2c1 |  | 1 µM |  |
| COc1ccc2nc3c(c(C)nn3[C@@H]3O[C@H](COC(=O)c4ccoc4)[C@@H](OC(=O)c4ccoc4)[C@H]3OC(=O)c3ccoc3)c(Cl)c2c1 | 49% |  |  |
| COc1ccc2nc3c(c(C)nn3[C@@H]3O[C@H](COC(C)=O)[C@@H](OC(C)=O)[C@H]3OC(C)=O)c(Cl)c2c1 | 3% |  |  |
| COc1ccc2nc3c(c(C)nn3[C@@H]3O[C@H](COC(=O)c4ccco4)[C@@H](OC(=O)c4ccco4)[C@H]3OC(=O)c3ccco3)c(Cl)c2c1 |  | 10.5 µM |  |
| COc1ccc2nc3c(c(C)nn3[C@H]3CC[C@@H](COC(=O)c4ccccc4)O3)c(Cl)c2c1 | 38% |  |  |
| COc1ccc2nc3c(c(C)nn3[C@H]3CNC[C@@H](CO)O3)c(Cl)c2c1 | 0% |  |  |
| COc1ccc2nc3c(c(C)nn3[C@H]3C=C[C@@H](COC(=O)c4ccccc4)O3)c(Cl)c2c1 |  | 80 µM |  |
| COc1ccc2nc3c(c(C)nn3[C@H]3C=C[C@@H](OC(O)CC(=O)c4ccccc4)O3)c(Cl)c2c1 (stereo not given in full) | 48% |  |  |
| COc1ccc2nc3c(c(C)nn3[C@@H]3O[C@H](COC(=O)c4ccccc4)[C@@H](OC(=O)c4ccccc4)[C@H]3OC(=O)c3ccccc3)c(Cl)c2c1 |  |  | IC50 [3]: 10 µM |
| COc1ccc2nc3c(c(C)nn3[C@H]3CN(S(=O)(=O)c4ccc([N+](=O)[O-])cc4)C[C@@H](C/C=C/C(=O)c4ccccc4)O3)c(Cl)c2c1 |  | 7 µM |  |
| COc1ccc2nc3c(c(C)nn3[C@H]3CN(S(=O)(=O)c4ccc([N+](=O)[O-])cc4)C[C@@H](CO)O3)c(Cl)c2c1 |  | 8 µM |  |
| COc1ccc2nc3c(c(C)nn3[C@@H]3O[C@H](COC(=O)C(C)C)[C@@H](OC(=O)C(C)C)[C@H]3OC(=O)C(C)C)c(Cl)c2c1 | 33% |  |  |
| CCOC(=O)/C=C/C[C@@H]1CN(Sc2ccc([N+](=O)[O-])cc2)C[C@H](n2nc(C)c3c(Cl)c4cc(OC)ccc4nc32)O1 | 64% |  |  |
| COc1ccc2nc3c(c(C)nn3[C@H]3C=C[C@@H](O/C=C/C(=O)c4ccccc4)O3)c(Cl)c2c1 |  | 35 µM |  |
| COc1ccc2nc3c(c(C)nn3[C@@H]3O[C@H](COC(=O)c4cccnc4)[C@@H](OC(=O)c4cccnc4)[C@H]3OC(=O)c3cccnc3)c(Cl)c2c1 | 33% |  |  |
| COc1ccc2nc3c(c(C)nn3[C@H]3CN(Sc4ccc([N+](=O)[O-])cc4)C[C@@H](CO)O3)c(Cl)c2c1 |  | 6.7 µM |  |
| COc1ccc2nc3c(c(C)nn3[C@@H]3O[C@H](O/C=C/C(=O)c4ccccc4)[C@H]4OC(C)(C)O[C@H]43)c(Cl)c2c1 | 53% |  |  |
| COc1ccc2nc3c(c(C)nn3[C@H]3C=C[C@@H](OCCC(=O)c4ccccc4)O3)c(Cl)c2c1 | 25% |  |  |
| COc1ccc2nc3c(c(C)nn3[C@H]3CN(S(=O)(=O)c4ccc(NC(C)=O)cc4)C[C@@H](CO[Si](C)(C)C(C)(C)C)O3)c(Cl)c2c1 |  | 27 µM |  |
| COc1ccc2nc3c(c(C)nn3[C@H]3CN(Sc4ccccc4[N+](=O)[O-])C[C@@H](C/C=C/C(C)=O)O3)c(Cl)c2c1 | 88% |  |  |
